What is called Kd is the equilibrium constant for the complex coming apart.

For assay [1], the target named is T1, translationally controlled tumor protein (TCTP) (Homo sapiens, UniProt P13693).
T1 construct: gene TPT1
T1 sequence (P13693 1-172): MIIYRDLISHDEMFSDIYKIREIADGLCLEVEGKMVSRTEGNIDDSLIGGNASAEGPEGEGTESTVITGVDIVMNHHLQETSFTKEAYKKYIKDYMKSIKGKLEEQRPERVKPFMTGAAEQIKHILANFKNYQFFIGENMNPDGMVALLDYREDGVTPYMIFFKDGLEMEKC
Nature of the assay: microscale thermophoresis with NHS-labeled purified human TCTP (reference inhibitor, positive control). Type of assay: binding.

Assay [2] has as its target T1, translationally controlled tumor protein (TCTP). Nature of the assay: microscale thermophoresis with NHS-labeled purified human TCTP; supported by co-immunoprecipitation of p53 from treated MOLT-4 cells. The format is binding. In general terms: In MST a laser heats a spot of the sample, and binding alters the fluorescence response.

For `C[C@H]1[C@H](OC(=O)CCC(=O)O)O[C@@H]2O[C@@]3(C)CC[C@H]4[C@H](C)CC[C@@H]1[C@@]24OO3` [Artesunate], in assay [1], binding was characterised by a dissociation constant (Kd) of 23.2 ± 9.45 µM.
For `COc1cccc2c(C)nc(Nc3nc(-c4ccc(F)cc4)cc(=O)[nH]3)nc12` [ZINC10157406, 6-(4-fluorophenyl)-2-[(8-methoxy-4-methyl-2-quinazolinyl)amino]-4(3H)-pyrimidinone], binding in assay [2] was characterised by a dissociation constant (Kd) of 0.87 ± 0.38 µM.
